Experimental data taken from US11819540B2, “Methods for treating and preventing neutrophil-derived net toxicity and thrombosis” (CHILDREN'S MEDICAL CENTER CORPORATION, priority 2011, dated 2023).

What was measured:
platelets = assay: Platelet aggregation (light transmission) with histones; assay type: cell-based, human; settings: EDTA 5 mM; heparin
Text: (§1) For FIGS. 2A and 2B data are presented as mean±SEM, n=3; (Student's t test; *P<0.05; **P<0.01). […] A second band (arrowhead) may represent cross reactivity of the antibody or a proteolytic product. Data presented are representative of three independent experiments. FIG. 2D is a graph of the degree of aggregation of platelets treated with thrombin (open circles), human recombinant histone H3 (solid circles), EDTA (solid squares), and heparin (solid triangles). […] FIG. 2E is a graph of the degree of aggregation of platelets 3 minutes after addition of various histones or throbmin (Thr). […] (ANOVA; ***P<0.001 compared with histone H1).
The possibility of a direct interaction between platelets and histones was examined. […] Thrombin (0.5 U/mL; open circles in FIG. 2D) and […] served as a positive control in these experiments. Aggregation in response to histone H3 (FIG. 2D) and H4 (data not shown) was inhibited by EDTA (5 mM; solid squares in FIG. 2D) which excluded platelet agglutination caused by the positive charge of histones. […] Dissociating NETs and inhibiting histones could add to the antithrombotic effects of heparin.

collagen = assay: Perfusion of blood over collagen-coated flow chamber; assay type: cell-based; settings: blood supplemented with DNase
Procedure: (§2) NETs were induced on glass coverslips and perfusion was performed using a parallel-plate flow chamber system (Glycotech). NETs were perfused with platelets suspended in plasma at a shear rate of 200/s or 900/s and 37° C. using a peristaltic pump and observed to be avidly adhering platelets. NETs were washed and fixed with 2.5% glutaraldehyde and electron microscopy was performed. […] NETs were also perfused with ACD-anticoagulated blood supplemented with the irreversible thrombin inhibitor PPACK-Dihydrochloride (100 μM; Calbiochem) and recalcified by addition of 2 mM CaCl2. […] Cells firmly attached to collagen or NETs were lysed with 100 μL of 0.5% Triton×100 in water. Hemoglobin content was measured using the method of Drabkin (Drabkin PNAS 1971 68:609-13). To quantify platelets, Rhodamine-6G fluorescence of the sample was analyzed using a fluorometer.
When NETs were washed after perfusion with blood and observed macroscopically a red thrombus was detectable (FIG. 3A). Shown in FIG. 3A is a flow chamber coated with NETs after perfusion with blood. Light microscopy of a red thrombus (arrow) anchored on two strings (arrowheads). FIG. 3A is a composite of multiple photographs of the flow chamber. (Scale bar, 500 μm). […] RBC adhesion to NETs was prevented when blood was supplemented with DNase, confirming that RBCs were attached to NETs. […]

[1] = system: blood clots (fibrin and NET scaffold); assay: Clot formation in recalcified blood with or without PAF-activated neutrophils (thrombolysis); assay type: cell-based, human; settings: tPA 25 μg/mL, DNase 100 U/mL
Procedure: Fibrin polymerization was induced in blood by recalcification and incubated either in the absence (medium) or presence of neutrophils preactivated by PAF to induce NET formation (neutrophils+PAF). Samples were treated with DNase to digest extracellular traps or tPA for fibrin digestion. […] (Scale bar, 1 cm.) The graph presents quantification of the clots by weighing. […] Data are presented as mean±SEM, n=4; (ANOVA; ***P<0.001). The first bar in each x-axis category represents the untreated samples, the second bar represents the samples treated with DNase, the third bar represents the samples treated with tPA, and the fourth bar represents the samples treated with tPA and DNase.
The relative susceptibility of NETs and fibrin to serve as scaffolds for blood clots to thrombolysis was examined (FIG. 20). Neutrophils were prestimulated with platelet-activating factor to release NETs with recalcified blood under stirring conditions. Two-hundred-fifty microliters of 5×10^6 neutrophils per milliliter in RPMI medium were activated by platelet activating factor (50 μM Calbiochem) at 37° C. under static conditions to induce NET formation. Control samples were 250 μL medium alone, 250 μL of unstimulated neutrophils, or 250 μL of 50 μM PAF in medium. After 10 min, 250 μL of recalcified (40 mM CaCl2) ACD anticoagulated blood was added. […] Images were acquired and the clot was determined. […]

NETs [2] = assay: Perfusion of blood over NETs in a flow chamber; assay type: cell-based, human
Procedure: The interaction between NETs and blood was studied using NETs isolated from human neutrophils. Blood samples were obtained from healthy donors who had not taken any medication for at least 10 day. Platelets and neutrophils were prepared from ACD-blood (Brill A, et al. Cardiovasc Res 2009 84(1):137-144) or EDTA-blood (Fuchs et al., J Cell Biol 2007 176:231-241), respectively. Neutrophils were seeded into flow chambers (μ-Slide IV, IBIDI) at 0.5 to 1×10^7 cells/mL. NET formation by the majority of cells was induced by phorbol 12-myristate 13-acetate (PMA, 50 nM, 4 h; Sigma Aldrich) or glucose oxidase (GO, 1 U/mL, 4 h; Worthington Biochem), as previously described (Brill A, et al. Cardiovasc Res 2009 84(1):137-144). PMA-induced NETs were used for initial observations. Other experiments were done with GO-induced NETs. NETs were washed and blocked with 1% BSA (Calbiochem). NET-DNA was stained with 1 μg/mL Hoechst 33258 (Invitrogen) for 15 min at 37° C. or SytoxGreen (1 μM, Invitrogen). Washed platelets were loaded with fluorescent Calcein-AM (2.5 μg/mL, 10 min, 37° C.; Invitrogen) or platelets in whole blood were labeled with Rhodamine 6G (5 μg/mL, 10 min, 37° C.; Sigma). Fluorescent images were acquired by a Zeiss Axiovert 200 inverted fluorescence microscope in conjunction with a monochrome camera (AxioCam MRm). Colors for fluorescence channels were assigned using Axiovision software. Fluorescent areas in images were quantified using ImageJ software.
as §2
Strings of NETs aligned in the direction of flow and, importantly, NETs were not a static surface but moved in three dimensions. Within 1 min from onset of perfusion, small platelet aggregates appeared on NETs. Platelet adhesion and aggregation on NETs increased over the next 9 min. […] Both platelet aggregates and NETs were removed by DNase and 10 minutes after the beginning of perfusion (FIGS. 1C and 1D). […] Thus, NETs were the only prothrombotic substrate in these experiments. FIGS. 1C and 1D show data that are representative of at least three independent experiments and are shown as mean±SEM, n=3. AU means arbitrary units.

NETs [3] = assay: Binding of plasma VWF, fibronectin and fibrinogen to NETs; assay type: cell-based, human; settings: DNaseI 100 U/mL, 10 min after plasma incubation
Procedure: FIGS. 19A-19C depict graphs of the binding of von Willebrand factor (VWF), fibronectin, and fibrinogen to neutrophil extracellular traps (NETs). Human NETs were incubated with human plasma for 30 min, washed, and stained for VWF (19A), fibronectin (19B), or fibrinogen (19C). […] Data are presented as mean±SEM, n=3; (Student's t test); **P<0.01; ***P<0.001.
Whether NETs can concentrate plasma proteins that promote and stabilize thrombi (Frenette and Wagener NEJM 1996 335:43-5) was determined. […] After the activation, NETs were incubated with 1% BSA for 1 h at 37° C. NETs were washed and incubated with 50% plasma in PBS for 30 min at 37° C. Next, NETs were washed and treated with DNaseI (100 U/mL, 10 min). After another wash, cells were fixed with paraformaldehyde (2%, 1 h at 37° C.) and unspecific binding sites were blocked with BSA (3%, 1 h at 37° C.). Primary antibodies were used at 1 μg/mL in PBS supplemented with 1% BSA and 0.1% Triton×100 [mouse-antifibrinogen, rabbit-antifibronectin (both Sigma); rabbit-anti-VWF, (Chemicon)]. After incubation at 37° C. for 1 h, samples were washed with PBS and fluorescently conjugated secondary antibodies (Invitrogen) were applied at 10 μg/mL for 30 min at 37° C. […] The interaction of fibrinogen with NETs and its ability to promote fibrin deposition was determined. […]

NETs [4] = assay: Incubation of NETs under static conditions, immunodetection of released histone H2B; assay type: cell-based, human
Text: as §1
The effect of heparin was also observed in medium, indicating a direct interaction of heparin with the NETs. Heparin has high affinity for histones (Pal et al., Thromb Res 1983 31:69-79) and releases histones from chromatin (Napirei et al. FEBS J 2009 276:1059-1073).

[5] = blood supplemented with DNase at the beginning of the perfusion

Molecule	platelet aggregation in response to histone H3 and H4 in presence of inhibitor (platelets)	platelet adhesion to collagen-coated chambers (collagen)	clot formation ([1]; absence of activated neutrophils (medium))	clot formation / clot size ([1]; presence of PAF-activated neutrophils)	NETs and adherent platelets after DNase addition (NETs [2]; DNase 100 U/mL added 10 min after beginning of perfusion)	RBC adhesion to NETs (NETs [2]; blood supplemented with DNase)	platelet adhesion to NETs (NETs [2]; blood supplemented with DNase)	NETs (NET-DNA area) (NETs [2]; [5])	platelet aggregates on NETs (NETs [2]; [5])	binding of VWF, fibronectin and fibrinogen to NETs (NETs [3])	release of histones (H2B) from NETs (NETs [4])	platelet aggregates on NETs (NETs [2]; heparin 10 μg/mL)	NETs (NET-DNA) (NETs [2]; heparin 100 μg/mL, perfusion with heparinized blood, 10 min)
O=C(O)CN(CCN(CC(=O)O)CC(=O)O)CC(=O)O [EDTA, ethylenediaminetetraacetic acid]	inhibited												
DNase		had no effect	had no effect	did not change	simultaneously removed NETs and platelets	prevented	prevented platelet adhesion to NETs	NETs were degraded rapidly	platelet aggregates did not form	binding to NETs in a DNase-sensitive manner	released histones to the culture supernatant		
Heparin [reference compound]	completely abolished platelet response to these histones										released histones to the culture supernatant	removed platelet aggregates from NETs	almost completely dismantled NETs
